Laboratory results published in the NIST ThermoML archive (doi:10.1021/acs.jced.7b00119).
“And” between values parts separate entries of the source, which are not always exact repeats. Equal entries are not always repeated. Numbers after ± are expanded uncertainties.

Tests used:
[1] = excess molar enthalpy (molar enthalpy of mixing); xn = mol fraction of the nth substance listed; conditions: Liquid, Flow calorimetry
[2] = Liquid, Closed cell (Static) method

CC(=O)N(C)C [N,N-dimethylethanamide] + c1ccccc1
[1], 413.15 K, 1824 kPa
Conditions	excess molar enthalpy [kcal/mol]
x2 = 0.0261	-0.0033 ± 0.00105
x2 = 0.0522	-0.00617 ± 0.0011
x2 = 0.1042	-0.0116 ± 0.00122
x2 = 0.1817	-0.0187 ± 0.00136
x2 = 0.2586	-0.0239 ± 0.00148
x2 = 0.3604	-0.0277 ± 0.00167
x2 = 0.4361	-0.0275 ± 0.00167
x2 = 0.5114	-0.0241 ± 0.00143
x2 = 0.5861	-0.0193 ± 0.00139
x2 = 0.6603	-0.0129 ± 0.00124
x2 = 0.7584	-0.00356 ± 0.00105
x2 = 0.8315	0.00311 ± 0.00103
x2 = 0.904	0.00703 ± 0.00112
x2 = 0.9521	0.00629 ± 0.0011
x2 = 0.9761	0.00411 ± 0.00105

C=CCCCCCC [oct-1-ene] + CC(=O)N(C)C
[1], 363.15 K, 1858 kPa
Conditions	excess molar enthalpy [kcal/mol]
x1 = 0.03	0.0437 ± 0.00191
x1 = 0.0612	0.0906 ± 0.00287
x1 = 0.0938	0.135 ± 0.00382
x1 = 0.1279	0.176 ± 0.00478
x1 = 0.1636	0.213 ± 0.0055
x1 = 0.201	0.249 ± 0.00621
x1 = 0.2401	0.281 ± 0.00693
x1 = 0.2812	0.31 ± 0.00765
x1 = 0.3244	0.336 ± 0.00813
x1 = 0.3698	0.357 ± 0.0086
x1 = 0.4177	0.37 ± 0.00884
x1 = 0.4682	0.379 ± 0.00908
x1 = 0.5215	0.383 ± 0.00908
x1 = 0.5779	0.38 ± 0.00908
x1 = 0.6377	0.368 ± 0.00884
x1 = 0.7013	0.344 ± 0.00837
x1 = 0.7688	0.304 ± 0.00741
x1 = 0.8408	0.243 ± 0.00621
x1 = 0.9177	0.149 ± 0.00406

CC(=O)N(C)C [N,N-dimethylethanamide] + CCO
[1], 413.15 K, 1824 kPa
Conditions	excess molar enthalpy [kcal/mol]
x2 = 0.0774	-0.0421 ± 0.00191
x2 = 0.1505	-0.077 ± 0.00263
x2 = 0.2528	-0.116 ± 0.00335
x2 = 0.3471	-0.143 ± 0.00406
x2 = 0.462	-0.163 ± 0.00454
x2 = 0.541	-0.168 ± 0.00454
x2 = 0.6146	-0.166 ± 0.00454
x2 = 0.6833	-0.154 ± 0.0043
x2 = 0.7476	-0.138 ± 0.00382
x2 = 0.8271	-0.109 ± 0.00335
x2 = 0.8826	-0.0805 ± 0.00263
x2 = 0.9349	-0.049 ± 0.00191
x2 = 0.9681	-0.0258 ± 0.00143

CC(=O)N(C)C [N,N-dimethylethanamide] + CO
[1], 413.15 K, 1824 kPa
Conditions	excess molar enthalpy [kcal/mol]
x2 = 0.1079	-0.0748 ± 0.00263
x2 = 0.2034	-0.13 ± 0.00382
x2 = 0.2885	-0.17 ± 0.00454
x2 = 0.3648	-0.196 ± 0.00502
x2 = 0.4337	-0.212 ± 0.0055
x2 = 0.4961	-0.22 ± 0.00574
x2 = 0.553	-0.221 ± 0.00574
x2 = 0.605	-0.217 ± 0.0055
x2 = 0.6527	-0.207 ± 0.00526
x2 = 0.6967	-0.197 ± 0.00502
x2 = 0.7374	-0.181 ± 0.00478
x2 = 0.7751	-0.163 ± 0.00454
x2 = 0.8101	-0.145 ± 0.00406
x2 = 0.8428	-0.125 ± 0.00359
x2 = 0.8733	-0.105 ± 0.00311
x2 = 0.9019	-0.0848 ± 0.00287
x2 = 0.9287	-0.0633 ± 0.00239
x2 = 0.9539	-0.0423 ± 0.00191
x2 = 0.9776	-0.0213 ± 0.00141

CC(=O)N(C)C [N,N-dimethylethanamide] + CCCCCCC
[1], 413.15 K, 1824 kPa
Conditions	excess molar enthalpy [kcal/mol]
x2 = 0.016	0.0308 ± 0.00167
x2 = 0.0323	0.0619 ± 0.00239
x2 = 0.0659	0.122 ± 0.00359
x2 = 0.1007	0.177 ± 0.00478
x2 = 0.137	0.228 ± 0.00574
x2 = 0.1747	0.276 ± 0.00669
x2 = 0.2139	0.319 ± 0.00765
x2 = 0.2548	0.358 ± 0.0086
x2 = 0.2974	0.393 ± 0.00932
x2 = 0.3419	0.423 ± 0.01
x2 = 0.3883	0.449 ± 0.0105
x2 = 0.4369	0.466 ± 0.0108
x2 = 0.4878	0.476 ± 0.011
x2 = 0.5411	0.48 ± 0.0112
x2 = 0.597	0.474 ± 0.011
x2 = 0.6557	0.456 ± 0.0108
x2 = 0.7175	0.427 ± 0.01
x2 = 0.7825	0.376 ± 0.00884
x2 = 0.8511	0.299 ± 0.00741
x2 = 0.9234	0.181 ± 0.00478
x2 = 0.9612	0.0999 ± 0.00311

C=CCCCCCC [oct-1-ene]
[2]
Conditions	vapor or sublimation pressure [kPa]
328.15 K	10.12 ± 0.17
363.15 K	39.2 ± 0.18

CCOC(C)=O [ethyl acetate]
Conditions	vapor or sublimation pressure [kPa]
[2], 353.15 K	111.76 ± 0.41

Cc1ccccc1 [toluene]
Conditions	vapor or sublimation pressure [kPa]
[2], 353.15 K	38.92 ± 0.21

CCO [ethanol]
Conditions	vapor or sublimation pressure [kPa]
[2], 353.15 K	108.42 ± 0.4

CCCCCCC [heptane]
Conditions	vapor or sublimation pressure [kPa]
[2], 353.15 K	57.09 ± 0.25

CC(=O)N(C)C [N,N-dimethylethanamide]
[2]
Conditions	vapor or sublimation pressure
328.15 K	1.61 ± 0.16 kPa and 1.64 ± 0.16 kPa
333.15 K	2.23 ± 0.16 kPa
343.15 K	3.39 ± 0.16 kPa
353.15 K	5.32 ± 0.16 kPa [middle of 5 runs]
363.15 K	8.46 ± 0.16 kPa

CC(=O)N(C)C [N,N-dimethylethanamide] + CCOC(C)=O
[1], 323.15 K, 1307 kPa
Conditions	excess molar enthalpy [kcal/mol]
x2 = 0.0476	0.00669 ± 0.0011
x2 = 0.0954	0.0126 ± 0.00124
x2 = 0.1435	0.0188 ± 0.00136
x2 = 0.1918	0.0239 ± 0.00143
x2 = 0.2404	0.0284 ± 0.00167
x2 = 0.2892	0.0327 ± 0.00167
x2 = 0.3383	0.0361 ± 0.00167
x2 = 0.3876	0.0392 ± 0.00191
x2 = 0.4372	0.0413 ± 0.00191
x2 = 0.487	0.043 ± 0.00191
x2 = 0.5371	0.044 ± 0.00191
x2 = 0.5875	0.0437 ± 0.00191
x2 = 0.6381	0.043 ± 0.00191
x2 = 0.689	0.0409 ± 0.00191
x2 = 0.7401	0.0382 ± 0.00167
x2 = 0.7916	0.0344 ± 0.00167
x2 = 0.8433	0.0287 ± 0.00167
x2 = 0.8952	0.0212 ± 0.00141
x2 = 0.9475	0.0119 ± 0.00122
